We go through 21 compounds from patent publication US11852971B2, “Compound, photosensitive resin composition including the same, photosensitive resin layer, color filter and display device” (SAMSUNG SDI CO., LTD., priority 2019, dated 2023).

Data set [1] can be described thus: Measurement of the shortest wavelength of full width at half maximum (FWHM) with respect to maximum absorption wavelength (absorption spectrum). The class given is physicochemical. To be noted: 0.005 wt % in PGMEA; UV-1800. An excerpt: The shortest wavelength of the full width at half maximum (FWHM) with respect to the maximum absorption wavelengths denotes a wavelength having the smallest value (a) among the energy widths (Δλ) of the maximum absorption wavelength (b) in the absorption spectrum of a particular phthalocyanine compound. (Refer to the FIGURE)
Evaluation 1: Measurement of the Shortest Wavelength of Full Width at Half Maximum (FWHM) with respect to Maximum Absorption Wavelength
The compounds according to Synthesis Example 1 to Synthesis Example 21 and Comparative Synthesis Example 1 to Comparative Synthesis Example 6 were prepared at a concentration of 0.005 wt % using a diluting solvent (PGMEA). Absorption spectra were obtained for each of the phthalocyanine compounds according to Synthesis Example 1 to […] and Comparative Synthesis Example 1 to Comparative Synthesis Example 6, and the results are shown in Table 1 (UV-1800, SHTMADZU).

Data set [2] in a line: Solubility measurement in dilution solvent (PGMEA). To be noted: PGMEA added to 0.5 g compound, stirred 100 rpm, one hour, 25° C. The class given is physicochemical. As for the experimental part: Evaluation 2: Solubility Measurement Solubility of the compounds according to Synthesis Examples 11 to 21 and Comparative Synthesis Examples 1 to 6 were measured by adding a dilution solvent (PGMEA) to 0.5 g of each compound and respectively stirring the mixtures (MIXROTAR VMR-5, Iuchi Seiei Dou Co.) at 100 rpm for one hour at 25° C., and the results are shown in Table 2. Solubility Evaluation Criteria Greater than or equal to 10 wt % of a compound (a solute) based on a total amount of a diluting solvent was dissolved: ∘ Less than 10 wt % of a compound (a solute) based on a total amount of a diluting solvent was dissolved: X

For the compound `Cc1cccc(C)c1Oc1c(Cl)c(Cl)c2c(c1Cl)/C1=N/c3c4c(Cl)c(Oc5c(C)cccc5C)c(Cl)c(Cl)c4c4[n]3[Zn][n]3/c(c5ccccc5/c3=N/C2=N1)=N\C1=NC(=N\4)/c2c(Cl)c(Cl)c(Cl)c(Cl)c21` [Synthesis Example 6], in data set [1], the “The shortest wavelength (nm) of full width at half maximum (FWHM) with respect to maximum absorption wavelength” value (“The shortest wavelength (nm)” below) is recorded as 618 nm. For the same compound, the Solubility result in data set [2] is recorded as “○”.
On the same counts, the results for `CC(C)(C)c1ccccc1Oc1c(Cl)c(Cl)c2c(c1Cl)/C1=N/c3c4c(Cl)c(Cl)c(Cl)c(Cl)c4c4[n]3[Zn][n]3/c(c5ccccc5/c3=N/C2=N1)=N\C1=NC(=N\4)/c2c(Cl)c(Cl)c(Cl)c(Cl)c21` [Synthesis Example 4] are 617 nm and “○”.
Taken in the same sequence, the figures for `COc1ccc(Oc2c(Cl)c(Cl)c3c4[n]5c(c3c2Cl)/N=C2N=C(/N=c3/c6c(Cl)c(Cl)c(Cl)c(Cl)c6/c([n]3[Zn]5)=N/C3=NC(=N\4)/c4c(Cl)c(Cl)c(Cl)c(Cl)c43)c3c(Cl)c(Cl)c(Cl)c(Cl)c3\2)c(OC)c1` [Comparative Synthesis Example 4, reference compound] were 626 nm and “X (Less than 10 wt % of a compound (a solute) based on a total amount of a diluting solvent was dissolved)”.
Taken in the same sequence, the figures for `CC(C)(C)COc1c(Cl)c(Cl)c2c(c1Cl)/C1=N/c3c4c(Cl)c(OCC(C)(C)C)c(Cl)c(Cl)c4c4[n]3[Zn][n]3/c(c5ccccc5/c3=N/C2=N1)=N\C1=NC(=N\4)/c2ccccc21` [Synthesis Example 14] were 611 nm and “○”.
With `Cc1ccc(Oc2c(Cl)c(Cl)c3c(c2Cl)/C2=N/c4c5c(Cl)c(Oc6ccc(C)cc6C(C)(C)C)c(Cl)c(Cl)c5c5[n]4[Zn][n]4/c(c6ccccc6/c4=N/C3=N2)=N\C2=NC(=N\5)/c3c(Cl)c(Cl)c(Cl)c(Cl)c32)c(C(C)(C)C)c1` [Synthesis Example 10], the “The shortest wavelength (nm)” value in data set [1] is listed as 616 nm. For the same compound, in data set [2], the Solubility result was “○”.
Turning to `CC(C)(C)COc1c(Cl)c(Cl)c2c(c1Cl)/C1=N/c3c4c(Cl)c(Cl)c(Cl)c(Cl)c4c4[n]3[Zn][n]3/c(c5ccccc5/c3=N/C2=N1)=N\C1=NC(=N\4)/c2c(Cl)c(Cl)c(Cl)c(Cl)c21` [Synthesis Example 13], the “The shortest wavelength (nm)” value in data set [1] amounted to 618 nm. Also, the Solubility result in data set [2] is reported as “○”.
On the same counts, the results for `CC(C)COc1c(Cl)c(Cl)c2c(c1Cl)/C1=N/c3c4c(Cl)c(Cl)c(Cl)c(Cl)c4c4[n]3[Zn][n]3/c(c5ccccc5/c3=N/C2=N1)=N\C1=NC(=N\4)/c2c(Cl)c(Cl)c(Cl)c(Cl)c21` [Synthesis Example 19] are 618 nm and “○”.
On to `CC(C)(C)COc1c(Cl)c(Cl)c2c(c1Cl)/C1=N/c3c4c(Cl)c(OCC(C)(C)C)c(Cl)c(Cl)c4c4[n]3[Zn][n]3/c(c5ccccc5/c3=N/C2=N1)=N\C1=NC(=N\4)/c2c(Cl)c(Cl)c(Cl)c(Cl)c21` [Synthesis Example 12], for which, in data set [1], the “The shortest wavelength (nm)” value is 617 nm. The Solubility entry in data set [2] is “○”.
Consider `CC(C)(C)c1ccc(Oc2c(Cl)c(Cl)c3c(c2Cl)/C2=N/c4c5c(Cl)c(Cl)c(Cl)c(Cl)c5c5[n]4[Zn][n]4/c(c6ccccc6/c4=N/C3=N2)=N\C2=NC(=N\5)/c3c(Cl)c(Cl)c(Cl)c(Cl)c32)c(C(C)(C)C)c1` [Synthesis Example 9], for which the “The shortest wavelength (nm)” value in data set [1] is 618 nm. Moreover, in data set [2], the Solubility entry was “○”.
Taken in the same sequence, the figures for `Cc1cccc(C)c1Oc1c(Cl)c(Cl)c2c(c1Cl)/C1=N/c3c4c(Cl)c(Cl)c(Cl)c(Cl)c4c4[n]3[Zn][n]3/c(c5ccccc5/c3=N/C2=N1)=N\C1=NC(=N\4)/c2c(Cl)c(Cl)c(Cl)c(Cl)c21` [Synthesis Example 7] were 618 nm and “○”.
On the same counts, the results for `Cc1ccccc1Oc1c(Cl)c(Cl)c2c(c1Cl)/C1=N/c3c4c(Cl)c(Oc5ccccc5C)c(Cl)c(Cl)c4c4[n]3[Zn][n]3/c(c5ccccc5/c3=N/C2=N1)=N\C1=NC(=N\4)/c2c(Cl)c(Cl)c(Cl)c(Cl)c21` [Synthesis Example 5] are 618 nm and “○”.
With `CC(C)c1ccccc1Oc1c(Cl)c(Cl)c2c(c1Cl)/C1=N/c3c4c(Cl)c(Cl)c(Cl)c(Cl)c4c4[n]3[Zn][n]3/c(c5ccccc5/c3=N/C2=N1)=N\C1=NC(=N\4)/c2c(Cl)c(Cl)c(Cl)c(Cl)c21` [Synthesis Example 2], the “The shortest wavelength (nm)” value in data set [1] amounted to 617 nm. In data set [2], the Solubility result was “○”.
Turning to `CC(C)COc1c(Cl)c(Cl)c2c(c1Cl)/C1=N/c3c4c(Cl)c(OCC(C)C)c(Cl)c(Cl)c4c4[n]3[Zn][n]3/c(c5ccccc5/c3=N/C2=N1)=N\C1=NC(=N\4)/c2c(Cl)c(Cl)c(Cl)c(Cl)c21` [Synthesis Example 18], in data set [1], the “The shortest wavelength (nm)” value is given as 617 nm. Further, in data set [2], the Solubility entry is given as “○”.
As to `CC(C)(C)c1ccccc1Oc1c(Cl)c(Cl)c2c(c1Cl)/C1=N/c3c4c(Cl)c(Oc5ccccc5C(C)(C)C)c(Cl)c(Cl)c4c4[n]3[Zn][n]3/c(c5cc(Cl)ccc5/c3=N/C2=N1)=N\C1=NC(=N\4)/c2c(Cl)c(Cl)c(Cl)c(Cl)c21` [Comparative Synthesis Example 6, reference compound], the “The shortest wavelength (nm)” value in data set [1] is reported as 623 nm. The Solubility result in data set [2] is “X (Less than 10 wt % of a compound (a solute) based on a total amount of a diluting solvent was dissolved)”.
Taken in the same sequence, the figures for `CC(C)(C)c1ccc(Oc2c(Cl)c(Cl)c3c(c2Cl)C2=NC/3=N\c3c4c(Cl)c(Cl)c(Oc5ccc(C(C)(C)C)cc5C(C)(C)C)c(Cl)c4c4[n]3[Zn][n]3/c(c5c(Cl)c(Cl)c(Oc6ccc(C(C)(C)C)cc6C(C)(C)C)c(Cl)c5/c3=N/C3=NC(=N\4)/c4c(Cl)c(Oc5ccc(C(C)(C)C)cc5C(C)(C)C)c(Cl)c(Cl)c43)=N\2)c(C(C)(C)C)c1` [Comparative Synthesis Example 2, reference compound] were 624 nm and “X (Less than 10 wt % of a compound (a solute) based on a total amount of a diluting solvent was dissolved)”.
On the same counts, the results for `CC(C)CCOc1c(Cl)c(Cl)c2c(c1Cl)/C1=N/c3c4c(Cl)c(Cl)c(Cl)c(Cl)c4c4[n]3[Zn][n]3/c(c5ccccc5/c3=N/C2=N1)=N\C1=NC(=N\4)/c2c(Cl)c(Cl)c(Cl)c(Cl)c21` [Synthesis Example 16] are 618 nm and “○”.
In the case of `CC(C)(C)c1ccc(Oc2c(Cl)c(Cl)c3c(c2Cl)/C2=N/c4c5ccccc5c5[n]4[Zn][n]4/c(c6ccccc6/c4=N/C3=N2)=N\C2=NC(=N\5)/c3ccccc32)c(C(C)(C)C)c1` [Synthesis Example 21], the “The shortest wavelength (nm)” value in data set [1] is 608 nm. For the same compound, the Solubility result in data set [2] is “X (Less than 10 wt % of a compound (a solute) based on a total amount of a diluting solvent was dissolved)”.
Regarding `CC(C)(C)c1ccccc1Oc1c(Cl)c(Cl)c2c(c1Cl)/C1=N/c3c4c(Cl)c(Oc5ccccc5C(C)(C)C)c(Cl)c(Cl)c4c4[n]3[Zn][n]3/c(c5cc(Cl)c(Cl)cc5/c3=N/C2=N1)=N\C1=NC(=N\4)/c2c(Cl)c(Cl)c(Cl)c(Cl)c21` [Comparative Synthesis Example 5, reference compound], the “The shortest wavelength (nm)” value in data set [1] is on record as 625 nm. For the same compound, the Solubility result in data set [2] is “X (Less than 10 wt % of a compound (a solute) based on a total amount of a diluting solvent was dissolved)”.
Take `CC(C)CCOc1c(Cl)c(Cl)c2c(c1Cl)/C1=N/c3c4c(Cl)c(OCCC(C)C)c(Cl)c(Cl)c4c4[n]3[Zn][n]3/c(c5ccccc5/c3=N/C2=N1)=N\C1=NC(=N\4)/c2c(Cl)c(Cl)c(Cl)c(Cl)c21` [Synthesis Example 15]: the “The shortest wavelength (nm)” value in data set [1] worked out at 617 nm. Moreover, the Solubility entry in data set [2] was “○”.
For `Cc1ccc(Oc2c(Cl)c(Cl)c3c(c2Cl)/C2=N/c4c5c(Cl)c(Oc6ccc(C)cc6C(C)(C)C)c(Cl)c(Cl)c5c5[n]4[Zn][n]4/c(c6ccccc6/c4=N/C3=N2)=N\C2=NC(=N\5)/c3ccccc32)c(C(C)(C)C)c1` [Synthesis Example 11], the “The shortest wavelength (nm)” value in data set [1] is listed as 611 nm. In data set [2], the Solubility entry is on record as “○”.
On the same counts, the results for `CC(C)CCOc1c(Cl)c(Cl)c2c(c1Cl)/C1=N/c3c4c(Cl)c(OCCC(C)C)c(Cl)c(Cl)c4c4[n]3[Zn][n]3/c(c5ccccc5/c3=N/C2=N1)=N\C1=NC(=N\4)/c2ccccc21` [Synthesis Example 17] are 611 nm and “○”.
